This passage reports pKa results from US5240928A, “Substituted quinazolinones as angiotensin II antagonists” (Merck & Co., Inc., priority 1991, dated 1993).

Molecules are shown by their SMILES.

The nature of the data set: pKa. It counts as physicochemical.

Consider `CCCc1nc2ccc(C)cc2c(=O)n1Cc1ccc(-c2ccccc2-c2nn[nH]n2)cc1` [Example 76], for which the pKa is 4.7.

In general, pKa refers to the pH at which an ionisable group is half protonated. Lower therefore signals a group that gives up its proton readily.
